In ChEMBL document CHEMBL1146665 (Bioorg Med Chem Lett, 2004):

Experiments:
[1] = biological target: Melatonin receptor type 1A (Homo sapiens, UniProt P48039); test: Binding affinity towards human melatonin receptor type 1A
[2] = biological target: T1, Melatonin receptor type 1B (Homo sapiens, UniProt P49286); test: Binding affinity towards human melatonin receptor type 1B
T1 sequence (P49286 whole entry): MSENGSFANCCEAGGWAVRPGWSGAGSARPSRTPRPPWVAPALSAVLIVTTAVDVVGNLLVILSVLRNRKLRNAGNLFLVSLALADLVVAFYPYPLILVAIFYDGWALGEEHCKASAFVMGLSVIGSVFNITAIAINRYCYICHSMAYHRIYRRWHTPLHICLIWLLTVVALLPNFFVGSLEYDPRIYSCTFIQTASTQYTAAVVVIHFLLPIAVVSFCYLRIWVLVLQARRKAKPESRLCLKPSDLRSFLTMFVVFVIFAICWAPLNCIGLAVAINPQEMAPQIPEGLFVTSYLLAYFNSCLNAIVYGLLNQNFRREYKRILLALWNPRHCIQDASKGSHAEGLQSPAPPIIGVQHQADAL

NIH3T3 = test: Inhibition of forskolin-stimulated cAMP accumulation in NIH3T3 cells expressing MT2 receptor; format: functional, cell-based; conditions: Mus musculus

Sequence of Melatonin receptor type 1A (P48039 whole entry): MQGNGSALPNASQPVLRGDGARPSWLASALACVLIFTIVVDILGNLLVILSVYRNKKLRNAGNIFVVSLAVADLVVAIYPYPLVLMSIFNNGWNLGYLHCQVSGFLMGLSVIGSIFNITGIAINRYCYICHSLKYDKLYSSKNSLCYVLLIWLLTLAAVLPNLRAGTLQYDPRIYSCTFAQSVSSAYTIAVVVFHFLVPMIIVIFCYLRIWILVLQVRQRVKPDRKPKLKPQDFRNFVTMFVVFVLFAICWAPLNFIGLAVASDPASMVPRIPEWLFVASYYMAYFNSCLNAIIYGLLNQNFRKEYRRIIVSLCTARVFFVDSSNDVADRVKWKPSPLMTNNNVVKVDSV

Compound | Ki [1] | Ki [2] | EC50 (NIH3T3)
COc1cccc(Nc2ccc(NC(C)=O)cc2)c1 | 84 nM | 4.2 nM | –
CCOC(=O)Nc1ccc(N(C)c2cccc(OC)c2)cc1 | 34 nM | 7.2 nM | –
COc1cccc(N(C)c2ccc(NC(=O)C3CC3)cc2)c1 | 12 nM | 4.8 nM | –
CCCC(=O)Nc1ccc(S(=O)(=O)c2cccc(OC)c2)cc1 | > 500 nM | 10 nM | –
CCCC(=O)Nc1ccc(Oc2cccc3c2CCO3)cc1 | 18 nM | 0.68 nM | –
COc1cccc(Nc2ccc(NC(=O)C3CC3)cc2)c1 | 61 nM | 64 nM | –
CCCC(=O)Nc1ccc(N(C)c2cccc3c2CCO3)cc1 | 36 nM | 0.49 nM | –
COc1cccc(Nc2ccc(NC(=O)C(C)C)cc2)c1 | > 500 nM | 84 nM | –
CCCC(=O)Nc1ccc(Cc2cccc3occc23)cc1 | 92 nM | 0.78 nM | –
CCOC(=O)Nc1ccc(Nc2cccc(OC)c2)cc1 | > 500 nM | 150 nM | –
COc1cccc(N(C)c2ccc(NC(=O)C(C)C)cc2)c1 | 106 nM | 5.5 nM | –
CCCC(=O)Nc1ccc(Nc2cccc3c2CCO3)cc1 | > 500 nM | 39 nM | –
CCCC(=O)Nc1ccc(Oc2cccc3c2OCCO3)cc1 | 92 nM | 4.7 nM | –
COc1cccc(N(C)c2ccc(NC(C)=O)cc2)c1 | 0.05 nM | 0.23 nM | –
CCCC(=O)Nc1ccc(Cc2cccc3c2CCO3)cc1 | 41 nM | 0.71 nM | –
CCCC(=O)Nc1ccccc1Oc1cccc(OC)c1 | > 500 nM | 130 nM | –

Further lines, with some results ahead:

Ki [1] | Ki [2] | Compound | EC50 (NIH3T3)
1.1 nM | 0.1 nM | CCCC(=O)Nc1ccc(N(C)c2cccc(OC)c2)cc1 | –
300 nM | 6.8 nM | CCC(=O)Nc1ccc(Oc2cccc(OC)c2)cc1 | –
> 500 nM | 108 nM | CCCC(=O)Nc1ccc(Oc2ccccc2OC)cc1 | –
> 500 nM | 26.8 nM | CCCC(=O)Nc1cccc(Oc2cccc(OC)c2)c1 | –
61 nM | 1.8 nM | CCC(=O)Nc1ccc(Nc2cccc(OC)c2)cc1 | –
31 nM | 0.39 nM | CCCC(=O)Nc1ccc(Nc2cccc(OC)c2)cc1 | –
98 nM | 2.1 nM | C/C=C/C(=O)Nc1ccc(Oc2cccc(OC)c2)cc1 | –
63 nM | 0.75 nM | CCCC(=O)Nc1ccc(Oc2cccc(OC)c2)cc1 | 1.07 nM
> 500 nM | – | CCCCC(=O)Nc1ccc(Oc2cccc(OC)c2)cc1 | –
180 nM | 5.9 nM | COCC(=O)Nc1ccc(Oc2cccc(OC)c2)cc1 | –
99 nM | 13 nM | COc1cccc(Oc2ccc(NC(=O)C3CC3)cc2)c1 | –
> 500 nM | 122 nM | COc1cccc(Oc2ccc(NC(=O)C(C)C)cc2)c1 | –
> 500 nM | 15 nM | COc1cccc(Oc2ccc(NC(=O)CC(C)C)cc2)c1 | –
29 nM | 0.19 nM | CCCC(=O)Nc1ccc(Sc2cccc(OC)c2)cc1 | –
> 500 nM | 250 nM | CCNC(=O)Nc1ccc(Oc2cccc(OC)c2)cc1 | –
1 nM | 0.17 nM | CCC(=O)Nc1ccc(N(C)c2cccc(OC)c2)cc1 | –
10.9 nM | 0.12 nM | CCCC(=O)Nc1ccc(Cc2cccc(OC)c2)cc1 | –
> 500 nM | 110 nM | C#CCC(=O)Nc1ccc(Oc2cccc(OC)c2)cc1 | –
84 nM | 4.1 nM | COc1cccc(Oc2ccc(NC(C)=O)cc2)c1 | –
> 500 nM | > 400 nM | CCCC(=O)Nc1ccc(Oc2ccc(OC)cc2)cc1 | –
> 500 nM | 33 nM | CCCC(=O)Nc1ccc(C(=O)c2cccc(OC)c2)cc1 | –
